Data published in patent publication US11639352B2, “Benzothiazole compounds for the treatment of autoimmune diseases” (Hoffmann-La Roche Inc., priority 2018, dated 2023).

The compounds below were run against T1, human TLR8 (Homo sapiens, UniProt Q9NR97) (assay: HEK293-Blue-hTLR-8 cells assay (SEAP reporter, R848 stimulation)). Conditions: HEK293-Blue-hTLR8 cells, R848 ligand, 20 hrs incubation, antagonist.
T1 sequence (Q9NR97 27-1041): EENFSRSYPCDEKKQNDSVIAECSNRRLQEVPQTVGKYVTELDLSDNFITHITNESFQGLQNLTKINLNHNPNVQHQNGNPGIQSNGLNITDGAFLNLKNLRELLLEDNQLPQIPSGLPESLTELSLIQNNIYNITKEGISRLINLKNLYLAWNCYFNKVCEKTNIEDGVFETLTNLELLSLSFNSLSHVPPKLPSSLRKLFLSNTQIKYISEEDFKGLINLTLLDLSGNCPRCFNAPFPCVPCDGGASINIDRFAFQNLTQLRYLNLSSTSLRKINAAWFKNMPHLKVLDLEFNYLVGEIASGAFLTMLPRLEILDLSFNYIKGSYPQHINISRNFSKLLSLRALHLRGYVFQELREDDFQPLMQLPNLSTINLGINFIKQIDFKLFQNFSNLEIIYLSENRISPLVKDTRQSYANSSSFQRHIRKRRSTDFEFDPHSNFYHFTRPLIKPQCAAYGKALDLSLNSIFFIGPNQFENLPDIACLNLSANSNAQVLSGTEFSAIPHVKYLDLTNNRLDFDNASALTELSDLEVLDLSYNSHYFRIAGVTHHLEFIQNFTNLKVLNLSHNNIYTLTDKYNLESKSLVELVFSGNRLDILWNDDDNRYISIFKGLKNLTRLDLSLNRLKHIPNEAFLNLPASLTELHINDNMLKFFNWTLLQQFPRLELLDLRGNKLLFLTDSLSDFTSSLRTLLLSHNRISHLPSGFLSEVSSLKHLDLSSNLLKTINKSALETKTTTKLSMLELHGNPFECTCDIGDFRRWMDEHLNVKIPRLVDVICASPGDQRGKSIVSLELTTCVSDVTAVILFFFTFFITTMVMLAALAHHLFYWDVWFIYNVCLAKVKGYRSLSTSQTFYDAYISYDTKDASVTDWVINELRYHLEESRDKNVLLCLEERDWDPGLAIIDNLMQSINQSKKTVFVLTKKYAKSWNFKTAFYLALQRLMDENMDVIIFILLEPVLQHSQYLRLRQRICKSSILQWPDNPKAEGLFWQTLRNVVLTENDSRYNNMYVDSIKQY
Type: cell-based
Experimental: The following tests were carried out in order to determine the activity of the compounds of formula (I) in HEK293-Blue-hTLR-7/8/9 cells assay.
HEK293-Blue-hTLR-8 Cells Assay:
A stable HEK293-Blue-hTLR-8 cell line was purchased from InvivoGen (Cat. #: hkb-htlr8, San Diego, Calif., USA). These cells were originally designed for studying the stimulation of human TLR8 by monitoring the activation of NF-κB. A SEAP (secreted embryonic alkaline phosphatase) reporter gene was placed under the control of the IFN-β minimal promoter fused to five NF-κB and AP-1-binding sites. The SEAP was induced by activating NF-κB and AP-1 via stimulating HEK-Blue hTLR8 cells with TLR8 ligands. Therefore the reporter expression was declined by TLR8 antagonist under the stimulation of a ligand, such as R848, for incubation of 20 hrs. The cell culture supernatant SEAP reporter activity was determined using QUANTI-Blue™ kit (Cat. #: rep-qb1, Invivogen, San Diego, Calif., USA) at a wavelength of 640 nm, a detection medium that turns purple or blue in the presence of alkaline phosphatase.
HEK293-Blue-hTLR8 cells were incubated at a density of 250,000˜450,000 cells/mL in a volume of 170 μL in a 96-well plate in Dulbecco's Modified Eagle's medium (DMEM) containing 4.5 g/L glucose, 50 U/mL penicillin, […], […], 2 mM L-glutamine, 10% (v/v) heat-inactivated fetal bovine serum with addition of 20 μL test compound in a serial dilution in the presence of final DMSO at 1% and 10 μL of 60 uM R848 in above DMEM, perform incubation under 37° C. in a CO2 incubator for 20 hrs. Then 20 μL of the supernatant from each well was incubated with 180 μL Quanti-blue substrate solution at 37° C. for 2 hrs and the absorbance was read at 620˜655 nm using a spectrophotometer. The signalling pathway that TLR8 activation leads to downstream NF-κB activation has been widely accepted, and therefore similar reporter assay was modified for evaluating TLR8 antagonist.

SMILES	IC50 [nM]
C[C@@H]1CN(c2ccc(C#N)c3ncsc23)C[C@H](CN2CCC3(CCCNC3)C2)O1 (stereo partly drawn) [Example 1, 7-[(2S,6R)-2-(2,9-diazaspiro[4.5]decan-2-ylmethyl)-6-methyl-morpholin-4-yl]-1,3-benzothiazole-4-carbonitrile]	< 3
C[C@@H]1CN(c2ccc(C#N)c3ncsc23)C[C@H](CN2CCC(N)CC2)O1 [Example 2, 7-[(2S,6R)-2-[(4-amino-1-piperidyl)methyl]-6-methyl-morpholin-4-yl]-1,3-benzothiazole-4-carbonitrile]	5
C[C@@H]1CN(c2ccc(C#N)c3ncsc23)C[C@H](CN2CCC3(CCCNC3)CC2)O1 [Example 3, 7-[(2S,6R)-2-(2,9-diazaspiro[5.5]undecan-9-ylmethyl)-6-methyl-morpholin-4-yl]-1,3-benzothiazole-4-carbonitrile]	12
C[C@@H]1CN(c2ccc(C#N)c3ncsc23)C[C@H](CN2CC3(CCCNC3)C2)O1 [Example 4, 7-[(2S,6R)-2-(2,8-diazaspiro[3.5]nonan-2-ylmethyl)-6-methyl-morpholin-4-yl]-1,3-benzothiazole-4-carbonitrile]	14
C[C@@H]1CN(c2ccc(C#N)c3ncsc23)C[C@H](CN2CCC3(CCNCC3)CC2)O1 [Example 5, 7-[(2S,6R)-2-(3,9-diazaspiro[5.5]undecan-3-ylmethyl)-6-methyl-morpholin-4-yl]-1,3-benzothiazole-4-carbonitrile]	107
C[C@@H]1CN(c2ccc(C#N)c3ncsc23)C[C@H](CN2CCC3(CCNC3)CC2)O1 [Example 6, 7-[(2S,6R)-2-(2,8-diazaspiro[4.5]decan-8-ylmethyl)-6-methyl-morpholin-4-yl]-1,3-benzothiazole-4-carbonitrile]	22
C[C@@H]1CN(c2ccc(C#N)c3ncsc23)C[C@H](CN2CCC(N3CCCCC3)CC2)O1 [Example 7, 7-[(2R,6S)-2-methyl-6-[[4-(1-piperidyl)-1-piperidyl]methyl]morpholin-4-yl]-1,3-benzothiazole-4-carbonitrile]	< 3
C[C@@H]1CN(c2ccc(C#N)c3ncsc23)C[C@H](CN2[C@@H]3CC[C@H]2C[C@@H](N)C3)O1 [Example 8, Endo-7-[(2S,6R)-2-[[(1R,5S)-3-amino-8-azabicyclo[3.2.1]octan-8-yl]methyl]-6-methyl-morpholin-4-yl]-1,3-benzothiazole-4-carbonitrile]	< 3
C[C@@H]1CN(c2ccc(C#N)c3ncsc23)C[C@H](CN2[C@@H]3CC[C@H]2C[C@H](N)C3)O1 [Example 9, Exo-7-[(2S,6R)-2-[[(1S,5R)-3-amino-8-azabicyclo[3.2.1]octan-8-yl]methyl]-6-methyl-morpholin-4-yl]-1,3-benzothiazole-4-carbonitrile]	8
C[C@@H]1CN(c2ccc(C#N)c3ncsc23)C[C@H](CN2CCC3(CCCN(C)C3)CC2)O1 [Example 10, 7-[(2R,6S)-2-methyl-6-[(2-methyl-2,9-diazaspiro[5.5]undecan-9-yl)methyl]morpholin-4-yl]-1,3-benzothiazole-4-carbonitrile]	< 3
C[C@@H]1CN(c2ccc(C#N)c3ncsc23)C[C@H](C(=O)NC2CCN(C)CC2)O1 [Example 11, (2R,6R)-4-(4-cyano-1,3-benzothiazol-7-yl)-6-methyl-N-(1-methyl-4-piperidyl)morpholine-2-carboxamide]	< 3
C[C@@H]1CN(c2ccc(C#N)c3ncsc23)C[C@H](C(=O)NCC2CN(C)CCO2)O1 (stereo partly drawn) [Example 12, (2R,6R)-4-(4-cyano-1,3-benzothiazol-7-yl)-6-methyl-N-[(4-methylmorpholin-2-yl)methyl]morpholine-2-carboxamide]	< 3
